Experimental data taken from PubChem BioAssay (NCI).
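Growth conditions: 96-well plates. Treatment: test compound, 48 hours, 5 concentrations. Analysis: linear interpolation between bracketing concentrations; unreached endpoints set to highest concentration. TGI is the concentration that stops growth completely.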

These compounds were tested on NCI-H460 lung (assay: DTP human tumour cell line panel, 48 h).

SMILES	TGI [µM]
c1ccc2c(c1)c1ccccc1c1n[se]nc21	> 100
O=C(c1ccc(Cl)cc1Cl)N(/N=C/C=C/c1ccccc1)c1nnc(-c2ccccc2)c(-c2ccccc2)n1	> 100
Cn1c2c([N+](=O)[O-])cccc2c(=O)c2c(O)cc3c(c21)C=CC(C)(C)O3	> 100

These compounds were tested on MALME-3M melanoma (assay: DTP human tumour cell line panel, 48 h).

SMILES	TGI [µM]
O=C1c2ccccc2C(=O)N1C/C=N/NS(=O)(=O)c1ccc(F)cc1	> 100
c1ccc2c(c1)c1ccccc1c1n[se]nc21	> 100
O=C(c1ccc(Cl)cc1Cl)N(/N=C/C=C/c1ccccc1)c1nnc(-c2ccccc2)c(-c2ccccc2)n1	> 100
Cn1c2c([N+](=O)[O-])cccc2c(=O)c2c(O)cc3c(c21)C=CC(C)(C)O3	> 100
COc1ccc([C@@H]2C[C@@H]3C(=O)OC(=O)[C@@H]3c3c2c2ccccc2n3C)cc1	> 100

The compounds below were run on LXFL 529 NSCLC (assay: DTP human tumour cell line panel, 48 h).

SMILES	TGI [µM]
O=C1c2ccccc2C(=O)N1C/C=N/NS(=O)(=O)c1ccc(F)cc1	> 100
c1ccc2c(c1)c1ccccc1c1n[se]nc21	48.6
Cn1c2c([N+](=O)[O-])cccc2c(=O)c2c(O)cc3c(c21)C=CC(C)(C)O3	> 100
COc1ccc([C@@H]2C[C@@H]3C(=O)OC(=O)[C@@H]3c3c2c2ccccc2n3C)cc1	> 100

What follows are compounds tested on SF-539 CNS (assay: DTP human tumour cell line panel, 48 h).

SMILES	TGI [µM]
O=C1c2ccccc2C(=O)N1C/C=N/NS(=O)(=O)c1ccc(F)cc1	> 100
c1ccc2c(c1)c1ccccc1c1n[se]nc21	92.2
O=C(c1ccc(Cl)cc1Cl)N(/N=C/C=C/c1ccccc1)c1nnc(-c2ccccc2)c(-c2ccccc2)n1	> 100
Cn1c2c([N+](=O)[O-])cccc2c(=O)c2c(O)cc3c(c21)C=CC(C)(C)O3	76.2
COc1ccc([C@@H]2C[C@@H]3C(=O)OC(=O)[C@@H]3c3c2c2ccccc2n3C)cc1	> 100

What follows are compounds tested on UACC-257 melanoma (assay: DTP human tumour cell line panel, 48 h).

SMILES	TGI [µM]
O=C1c2ccccc2C(=O)N1C/C=N/NS(=O)(=O)c1ccc(F)cc1	> 100
c1ccc2c(c1)c1ccccc1c1n[se]nc21	> 100
O=C(c1ccc(Cl)cc1Cl)N(/N=C/C=C/c1ccccc1)c1nnc(-c2ccccc2)c(-c2ccccc2)n1	> 100
Cn1c2c([N+](=O)[O-])cccc2c(=O)c2c(O)cc3c(c21)C=CC(C)(C)O3	> 100
COc1ccc([C@@H]2C[C@@H]3C(=O)OC(=O)[C@@H]3c3c2c2ccccc2n3C)cc1	> 100

What follows are compounds tested on SW-620 colon (assay: DTP human tumour cell line panel, 48 h).

SMILES	TGI [µM]
O=C1c2ccccc2C(=O)N1C/C=N/NS(=O)(=O)c1ccc(F)cc1	> 100
c1ccc2c(c1)c1ccccc1c1n[se]nc21	> 100
O=C(c1ccc(Cl)cc1Cl)N(/N=C/C=C/c1ccccc1)c1nnc(-c2ccccc2)c(-c2ccccc2)n1	> 100
Cn1c2c([N+](=O)[O-])cccc2c(=O)c2c(O)cc3c(c21)C=CC(C)(C)O3	> 100
COc1ccc([C@@H]2C[C@@H]3C(=O)OC(=O)[C@@H]3c3c2c2ccccc2n3C)cc1	> 100

These compounds were tested on LOX IMVI melanoma (assay: DTP human tumour cell line panel, 48 h).

SMILES	TGI [µM]
O=C1c2ccccc2C(=O)N1C/C=N/NS(=O)(=O)c1ccc(F)cc1	> 100
c1ccc2c(c1)c1ccccc1c1n[se]nc21	> 100
O=C(c1ccc(Cl)cc1Cl)N(/N=C/C=C/c1ccccc1)c1nnc(-c2ccccc2)c(-c2ccccc2)n1	> 100
Cn1c2c([N+](=O)[O-])cccc2c(=O)c2c(O)cc3c(c21)C=CC(C)(C)O3	> 100

The compounds below were run on HL-60(TB) leukemia (assay: DTP human tumour cell line panel, 48 h).

SMILES	TGI [µM]
O=C1c2ccccc2C(=O)N1C/C=N/NS(=O)(=O)c1ccc(F)cc1	> 100
c1ccc2c(c1)c1ccccc1c1n[se]nc21	> 100
O=C(c1ccc(Cl)cc1Cl)N(/N=C/C=C/c1ccccc1)c1nnc(-c2ccccc2)c(-c2ccccc2)n1	> 100
Cn1c2c([N+](=O)[O-])cccc2c(=O)c2c(O)cc3c(c21)C=CC(C)(C)O3	> 100
COc1ccc([C@@H]2C[C@@H]3C(=O)OC(=O)[C@@H]3c3c2c2ccccc2n3C)cc1	> 100

These compounds were tested on OVCAR-5 ovarian (assay: DTP human tumour cell line panel, 48 h).

SMILES	TGI [µM]
c1ccc2c(c1)c1ccccc1c1n[se]nc21	> 100
O=C(c1ccc(Cl)cc1Cl)N(/N=C/C=C/c1ccccc1)c1nnc(-c2ccccc2)c(-c2ccccc2)n1	> 100
Cn1c2c([N+](=O)[O-])cccc2c(=O)c2c(O)cc3c(c21)C=CC(C)(C)O3	> 100

What follows are compounds tested on MOLT-4 leukemia (assay: DTP human tumour cell line panel, 48 h).

SMILES	TGI [µM]
O=C1c2ccccc2C(=O)N1C/C=N/NS(=O)(=O)c1ccc(F)cc1	> 100
c1ccc2c(c1)c1ccccc1c1n[se]nc21	> 100
O=C(c1ccc(Cl)cc1Cl)N(/N=C/C=C/c1ccccc1)c1nnc(-c2ccccc2)c(-c2ccccc2)n1	> 100
Cn1c2c([N+](=O)[O-])cccc2c(=O)c2c(O)cc3c(c21)C=CC(C)(C)O3	> 100
COc1ccc([C@@H]2C[C@@H]3C(=O)OC(=O)[C@@H]3c3c2c2ccccc2n3C)cc1	> 100

The compounds below were run on SF-295 CNS (assay: DTP human tumour cell line panel, 48 h).

SMILES	TGI [µM]
O=C1c2ccccc2C(=O)N1C/C=N/NS(=O)(=O)c1ccc(F)cc1	> 100
c1ccc2c(c1)c1ccccc1c1n[se]nc21	> 100
O=C(c1ccc(Cl)cc1Cl)N(/N=C/C=C/c1ccccc1)c1nnc(-c2ccccc2)c(-c2ccccc2)n1	> 100
Cn1c2c([N+](=O)[O-])cccc2c(=O)c2c(O)cc3c(c21)C=CC(C)(C)O3	99.5
COc1ccc([C@@H]2C[C@@H]3C(=O)OC(=O)[C@@H]3c3c2c2ccccc2n3C)cc1	> 100

What follows are compounds tested on NCI-H23 lung (assay: DTP human tumour cell line panel, 48 h).

SMILES	TGI [µM]
O=C1c2ccccc2C(=O)N1C/C=N/NS(=O)(=O)c1ccc(F)cc1	> 100
c1ccc2c(c1)c1ccccc1c1n[se]nc21	> 100
O=C(c1ccc(Cl)cc1Cl)N(/N=C/C=C/c1ccccc1)c1nnc(-c2ccccc2)c(-c2ccccc2)n1	> 100
Cn1c2c([N+](=O)[O-])cccc2c(=O)c2c(O)cc3c(c21)C=CC(C)(C)O3	> 100
COc1ccc([C@@H]2C[C@@H]3C(=O)OC(=O)[C@@H]3c3c2c2ccccc2n3C)cc1	> 100

These compounds were tested on SK-MEL-28 melanoma (assay: DTP human tumour cell line panel, 48 h).

SMILES	TGI [µM]
c1ccc2c(c1)c1ccccc1c1n[se]nc21	> 100
O=C(c1ccc(Cl)cc1Cl)N(/N=C/C=C/c1ccccc1)c1nnc(-c2ccccc2)c(-c2ccccc2)n1	> 100
Cn1c2c([N+](=O)[O-])cccc2c(=O)c2c(O)cc3c(c21)C=CC(C)(C)O3	> 100
COc1ccc([C@@H]2C[C@@H]3C(=O)OC(=O)[C@@H]3c3c2c2ccccc2n3C)cc1	> 100

What follows are compounds tested on SK-OV-3 ovarian (assay: DTP human tumour cell line panel, 48 h).

SMILES	TGI [µM]
c1ccc2c(c1)c1ccccc1c1n[se]nc21	64.3
O=C(c1ccc(Cl)cc1Cl)N(/N=C/C=C/c1ccccc1)c1nnc(-c2ccccc2)c(-c2ccccc2)n1	> 100
Cn1c2c([N+](=O)[O-])cccc2c(=O)c2c(O)cc3c(c21)C=CC(C)(C)O3	> 100
COc1ccc([C@@H]2C[C@@H]3C(=O)OC(=O)[C@@H]3c3c2c2ccccc2n3C)cc1	> 100
